In PMC12520770, “Synthesis of a novel coumarin via the Mannich reaction: in vitro and in silico evaluation of anti-cancer, antimicrobial and antioxidant activities” (Royal Society Open Science, 2025):
Converted amounts (≈) assume the structure as drawn.

Tests used:
[1] = test system: human breast cancer cell line MCF-7; assay: SRB cytotoxicity assay, MCF-7; type: cell-based; details: MCF7, MCF-7, SRB assay, 48 h
Experimental: (§1) Human lung cancer cell line NCI-H460 (HTB-177), human breast cancer cell line MCF-7 (HTB-2), human cervical cancer cells HeLa (CCL-2), human liver cancer cell line HepG2 (HB-8065) and normal kidney epithelial cell line (LLCPK1) were purchased from the American Type Culture Collection (Manassas, Rockville). Cells were cultured at 37°C and 5% CO2 in Eagle’s minimal essential medium supplemented with 10% (v/v) FBS (Sigma), 2 mM L-glutamine (Sigma), 20 mM HEPES (Sigma), 0.025 μg ml^−1 amphotericin B (Sigma), 100 IU ml^−1 penicillin G (Sigma) and 100 μg ml^−1 streptomycin (Sigma). Cells used in this study were between passages 4 and 20.
(§2) The experiment was conducted as previously outlined, with certain variations. Cells were seeded at a density of 10 000 cells per well (MCF-7, Hep G2, HeLa) or 7500 cells per well (NCI-H460) in 96-well plates, grown for 24 h, and subsequently treated with compounds at varying doses for 48 h. Treated cells were fixed with cold 50% (w/v) trichloroacetic acid (Merck) solution for 1−3 h, subsequently washed and stained with 0.2% (w/v) SRB (Sigma) for 20 min. Following five washes with 1% acetic acid (Merck), the protein-bound dye was solubilized in a 10 mM Tris base solution (Promega). Optical density values were measured using a 96-well microtiter plate reader (Synergy HT, Biotek Instruments) at wavelengths of 492 and 620 nm. The growth inhibition percentage (Inh %) was determined using the formula: Inh % = (1 − [ODt/ODc]) × 100, where ODt and ODc represent the optical density values of the test and control samples, respectively. Camptothecin served as the positive control.

[2] = test system: human cervical cancer cells HeLa; assay: SRB cytotoxicity assay, HeLa; type: cell-based; details: 48 h
Experimental: as §1, §2

[3] = test system: human liver cancer cell line HepG2; assay: SRB cytotoxicity assay, HepG2; type: cell-based; details: 48 h
Experimental: as §1, §2

[4] = DPPH radical scavenging assay; type: biochemical; details: read-out: SC50 (the source's name)
Experimental: The 1,1-diphenyl−2-picrylhydrazyl (DPPH) assay is a technique employed to assess the antioxidant potential of a chemical by measuring its efficacy in scavenging free radicals. DPPH produces stable free radicals in methanol. Upon exposure to an antioxidant, DPPH experiences a colour transformation from purple to yellow, which is quantified using an ELISA reader at a wavelength of 517 nm. The experiment is performed in a 96-well plate, where a 150 µM DPPH solution in 80% methanol is combined with test samples at different concentrations. The DPPH radical scavenging activity percentage is computed using the formula SC% = 1 − [ODt/ODc] × 100 (%), where SC50 (radical scavenging concentration of 50%) is the sample concentration necessary to eliminate 50% of DPPH radicals, as ascertained from the standard calibration curve. Trolox serves as a positive control in the experiment.

[5] = test system: Bacillus subtilis; assay: Broth microdilution MIC, B. subtilis; type: cell-based
Experimental: The three bacteria—Escherichia coli (E. coli), methicillin-resistant Staphylococcus aureus (MRSA) and Bacillus subtilis (B. subtilis), and two fungi: Candida albicans (C. albicans) and Trichophyton mentagrophytes (T. mentagrophytes) were used in this study. The clinical isolates were obtained in 2019 from the Faculty of Biology and Biotechnology, University of Science, Vietnam National University.
All coumarin derivatives were evaluated for in vitro antibacterial and antifungal activities, and the minimum inhibitory concentration (MIC) was ascertained in µM using the broth microdilution method. The test organisms were cultivated and cultured for 48 h at 37°C. The 2-day-old bacterial cultures were emulsified in a small volume of Muller Hinton broth (MHB) and cultured at 37°C overnight to reach the logarithmic growth phase. The turbidity of each inoculum was subsequently corrected to McFarland standard no. 0.5 by the additional incorporation of MHB, resulting in an inoculum concentration of 1.5 × 10^8 CFU ml^−1. One hundred microlitres of MHB were dispensed into all wells of the 96-well microtiter plates, excluding the first column A. Subsequently, 200 µl of the working solution for each examined chemical was allocated to column A of each plate. […] The MIC was determined as the minimal concentration of substances that inhibited the colour change.

[6] = test system: normal kidney epithelial cell line (LLCPK1); assay: SRB cytotoxicity assay, normal cells LLCPK1; type: cell-based; details: Sus scrofa, LLC-PK1
Experimental: as §1, §2

Row | Compound | EC50 [4] [µM] | MIC [5] [µM] | IC50 [1] [µM] | IC50 [2] [µM] | IC50 [3] [µM] | IC50 [6] [µM]
1 | O=C(O)c1ccc(NCc2c(O)c3ccccc3oc2=O)cc1 [2c, 4-{[(4-hydroxy-2-oxo-2H-chromen-3-yl)methyl]amino}benzoic acid] | 59.7 |  | 61.4 | 54.9 | 56.5 | 
2 | O=c1oc2ccccc2c(O)c1Cn1ccnc1 [2e, 3-[(1H-imidazol-1-yl)methyl]-4-hydroxy-2H-chromen-2-one] | 80.9 |  | 30.4 | 34.2 | 34.2 | 
3 | O=c1oc2ccccc2c(O)c1CN1CCOCC1 [2g, 4-Hydroxy-3-(morpholinomethyl)-2H-chromen-2-one] | 72.2 |  | 42.7 | 31.5 | 50.2 | 
4 | CCCNCc1c(O)c2ccccc2oc1=O [2h, 4-Hydroxy-3-[(propylamino)methyl]-2H-chromen-2-one] | 65.3 |  | 40.1 | 73.2 | 62.5 | 
5 | Cc1c(C)c2c(c(C)c1O)CCC(C)(C(=O)O)O2 (stereo not shown) [Trolox, reference compound] | 6.12 ± 0.15 |  |  |  |  | 
6 | CC[C@@]1(O)C(=O)OCc2c1cc1n(c2=O)Cc2cc3ccccc3nc2-1 [camptothecin, reference compound] |  |  | 3.76 ± 0.15 | 2.38 ± 0.102 | 4.28 ± 0.201 | 
7 | CNCc1c(O)c2ccccc2oc1=O [compound 2a, 4-Hydroxy-3-[(methylamino)methyl]-2H-chromen-2-one] | 62.5 | 25 (≈ 5.13 µg/mL) | 52 | 39.3 | 8.57 ± 0.42 | 94.6

The next lines start with results.

Row | EC50 [4] [µM] | MIC [5] [µM] | Compound | IC50 [1] [µM] | IC50 [2] [µM] | IC50 [3] [µM] | IC50 [6] [µM]
8 | 31.3 |  | CC(C)NCc1c(O)c2ccccc2oc1=O [compound 2b, 4-Hydroxy-3-[(isopropylamino)methyl]-2H-chromen-2-one] | 35.4 | 5.23 ± 0.12 | 73.2 | 97.3
9 | 35.8 |  | N#Cc1ccc(NCc2c(O)c3ccccc3oc2=O)cc1 [compound 2d, 4-{[(4-Hydroxy-2-oxo-2H−chromen-3-yl)methyl]amino}benzonitrile] | 2.54 ± 0.12 | 34.1 | 70.2 | 94.8
10 | 45.9 | 75 (≈ 19.4 µg/mL) | O=c1oc2ccccc2c(O)c1CNC1CCCC1 [compound 2f, 3-[(Cyclopentylamino)methyl]-4-hydroxy-2H-chromen-2-one] | 54.2 | 57.3 | 49.7 | 
11 | 7.36 ± 0.18 |  | O=c1oc2ccccc2c(O)c1CNc1ccc(S(=O)(=O)O)cc1 [compound 2i, 4-{[(4-Hydroxy-2-oxo−2H-chromen-3-yl)methyl]amino}benzenesulfonic acid] | 85.2 | 80.2 | 75.2 | 
12 | 53.3 |  | O=c1oc2ccccc2c(O)c1CNc1ccccc1 [compound 2j, 4-Hydroxy-3-[(phenylamino)methyl]-2H-chromen-2-one] | 95.5 | 84.7 | 68.1 | 
